Our source for the Ki and IC50 values is patent US20250388544A1, “HETEROAROMATIC INHIBITORS OF ASTACIN PROTEINASES” (VIVORYON THERAPEUTICS N.V., priority 2019, published 2025).

The target in assay [1] is T1, hMeprin α (Homo sapiens, UniProt Q16819).
T1 sequence (Q16819 66-746): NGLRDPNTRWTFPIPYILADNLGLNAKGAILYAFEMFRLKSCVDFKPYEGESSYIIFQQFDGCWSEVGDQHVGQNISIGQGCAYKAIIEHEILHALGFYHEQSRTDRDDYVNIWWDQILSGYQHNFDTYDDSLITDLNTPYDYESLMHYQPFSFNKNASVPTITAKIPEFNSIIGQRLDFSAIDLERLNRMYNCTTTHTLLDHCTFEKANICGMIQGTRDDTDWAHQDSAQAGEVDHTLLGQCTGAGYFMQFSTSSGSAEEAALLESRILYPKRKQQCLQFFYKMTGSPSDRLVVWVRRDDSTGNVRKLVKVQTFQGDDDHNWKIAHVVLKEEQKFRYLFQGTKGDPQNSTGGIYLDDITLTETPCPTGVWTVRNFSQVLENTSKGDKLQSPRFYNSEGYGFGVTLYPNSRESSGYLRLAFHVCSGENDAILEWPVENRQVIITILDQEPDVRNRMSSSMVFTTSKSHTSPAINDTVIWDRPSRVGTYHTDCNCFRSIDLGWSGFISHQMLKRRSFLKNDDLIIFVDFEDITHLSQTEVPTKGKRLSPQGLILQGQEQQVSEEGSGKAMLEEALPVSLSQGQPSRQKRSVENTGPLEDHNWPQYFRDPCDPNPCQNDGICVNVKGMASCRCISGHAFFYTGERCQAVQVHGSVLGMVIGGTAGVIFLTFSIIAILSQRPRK
Briefly: Enzymatic assay, quenched peptide substrate cleavage, method B. The format is biochemical. The following applies: geometric mean (geometric SD factor in parentheses); for Ki: Morrison's equation, read-out: Meprin alpha Ki(app); for IC50: read-out: Meprin alpha IC50. On the procedure: (§1) The determination of enzymatic activity was based on the cleavage of internally quenched peptide substrates. A typical assay of 250 μl total volume measured in black 96 well plates consisted of 100 μl buffer, 50 μl enzyme at a final concentration of 5e-8 M to 2e-10 M, 50 μl substrate (0.15 to 80 μM, in buffer, 0.5% DMSO) and 50 μl inhibitor solution (in buffer, 1% DMSO). In case of 125 μl assay volume (black 96 half area well plates) all volumes were cut in half. Enzymatic activity of ADAMs was measured in 384 well plates with 60 μl total assay volume consisting of 20 μl inhibitor, 20 μl buffer, 10 μl enzyme and 10 μl substrate.
(§2) Based on method B Ki^(app) values were determined using Morrison's equation. All measurements were performed using a fluorescence plate reader (FLUOSTAR OPTIMA, BMG Labtech) at 30° C. The kinetic parameters were determined at least in duplicates on separate days. The excitation/emission wavelength was 340/420 nm. The kinetic data was evaluated using GRAFIT software (version 7.0.3, Erithacus Software).

For assay [2], the target named is T2, hMeprin β (Homo sapiens, UniProt Q16820).
T2 sequence (Q16820 62-701): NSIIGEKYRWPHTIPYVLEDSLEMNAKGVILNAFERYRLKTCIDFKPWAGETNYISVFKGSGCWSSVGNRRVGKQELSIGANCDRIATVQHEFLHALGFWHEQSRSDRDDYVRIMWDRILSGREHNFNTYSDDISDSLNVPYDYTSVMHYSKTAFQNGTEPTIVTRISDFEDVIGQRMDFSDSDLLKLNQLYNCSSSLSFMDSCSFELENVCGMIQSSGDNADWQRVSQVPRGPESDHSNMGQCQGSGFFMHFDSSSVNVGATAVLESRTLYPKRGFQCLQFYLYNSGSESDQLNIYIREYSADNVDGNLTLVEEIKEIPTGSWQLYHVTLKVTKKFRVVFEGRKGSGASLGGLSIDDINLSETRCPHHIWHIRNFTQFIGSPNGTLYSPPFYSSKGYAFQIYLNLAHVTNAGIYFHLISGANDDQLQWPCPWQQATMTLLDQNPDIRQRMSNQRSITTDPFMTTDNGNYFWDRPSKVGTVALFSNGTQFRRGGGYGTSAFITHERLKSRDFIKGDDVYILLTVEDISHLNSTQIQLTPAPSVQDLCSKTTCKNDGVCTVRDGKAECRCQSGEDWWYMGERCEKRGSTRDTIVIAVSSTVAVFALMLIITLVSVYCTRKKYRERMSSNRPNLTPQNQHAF
Described as above. Format: biochemical. The conditions noted are these: geometric mean (geometric SD factor in parentheses); for Ki: Morrison's equation, read-out: Meprin beta Ki(app); for IC50: read-out: Meprin beta IC50. The method, then:
as §1, §2

Each structure is given as a SMILES string.

By IC50 is commonly meant the point on the concentration scale where inhibition reaches its midpoint. On to `O=C(Cn1c(-c2ccccc2C(=O)O)nc2ccccc21)NO` [Example 17, 2-[1-[2-(Hydroxyamino)-2-oxo-ethyl]benzimidazol-2-yl]benzoic acid], for which, in assay [1], the Ki is 1.39 µM and the IC50 turned out to be 1.43 µM. For the same compound, in assay [2], the Ki was 13.2 µM and the IC50 came out at 13.7 µM.

As for `O=C(Cn1c(-c2ccc(C(=O)O)cc2)nc2ccccc21)NO` [Example 19, 4-[1-[2-(Hydroxyamino)-2-oxo-ethyl]benzimidazol-2-yl]benzoic acid], the Ki amounted to 0.071 µM in assay [1] and 0.119 µM in assay [2]. The IC50 stood at 0.075 µM in assay [1] and 0.127 µM in assay [2].

Turning to `O=C(Cc1c(-c2cccc(C(=O)O)c2)n[nH]c1-c1cccc(C(=O)O)c1)NO` [Example 58, 3-[3-(3-Carboxyphenyl)-4-[2-(hydroxyamino)-2-oxo-ethyl]-1H-pyrazol-5-yl]benzoic acid], the Ki amounted to 0.01 µM in assay [1] and 0.014 µM in assay [2]. Besides, the IC50 in assay [1] was found to be 0.011 µM; in assay [2] it was 0.017 µM.

Take `O=C(Cc1c(-c2ccc(C(=O)O)cc2)n[nH]c1-c1ccc(Cl)c(O)c1F)NO` [Example 65, 4-[5-(4-Chloro-2-fluoro-3-hydroxy-phenyl)-4-[2-(hydroxyamino)-2-oxo-ethyl]-1H-pyrazol-3-yl]benzoic acid]: in assay [1], the Ki came to 0.01 µM and the IC50 stood at 0.01 µM. For the same compound, in assay [2], the Ki stood at 0.011 µM and the IC50 is 0.012 µM.

`O=C(Cc1c(-c2ccccc2)[nH]nc1[C@H]1CC[C@@H](C(=O)O)CC1)NO` [Example 75, cis-4-[4-[2-(Hydroxyamino)-2-oxo-ethyl)-5-phenyl-1H-pyrazol-3-yl]cyclohexanecarboxylic acid]: in assay [1], the Ki is 0.01 µM and the IC50 came to 0.01 µM. In assay [2], the Ki came to 0.035 µM and the IC50 worked out at 0.035 µM.

In the case of `O=C(Cc1c(-c2ccc3c(c2)OCO3)n[nH]c1-c1ccc(C(=O)O)cc1)NO` [Example 62, 4-[3-(1,3-Benzodioxol-5-yl)-4-[2-(hydroxyamino)-2-oxo-ethyl]-1H-pyrazol-5-yl)benzoic acid], the values for the Ki in assay [1] and in assay [2] were 0.01 µM and 0.093 µM, respectively. Further, the IC50 in assay [1] came to 0.011 µM; in assay [2], 0.094 µM.

Turning to `O=C(NO)C1Cc2ccccc2-c2[nH]nc(-c3ccccc3)c21` (stereo not shown) [Example 68, 3-Phenyl-4,5-dihydro-1H-benzo[g]indazole-4-carbohydroxamic acid], the Ki stood at 0.061 µM in assay [1] and 2.53 µM in assay [2]. The IC50 in assay [1] was 0.062 µM; in assay [2] it was 2.6 µM.

As for `O=C(Cc1c(-c2cc(O)no2)n[nH]c1-c1ccccc1)NO` [Example 69, 2-[3-(3-Hydroxyisoxazol-5-yl)-5-phenyl-1H-pyrazol-4-yl]ethanehydroxamic acid], in assay [1], the Ki amounted to 0.016 µM and the 50% inhibitory concentration (IC50) turned out to be 0.017 µM. Moreover, in assay [2], the Ki stood at 0.014 µM and the IC50 was found to be 0.014 µM.

Take `O=C(Cc1c(-c2ccc(C(=O)O)cc2)n[nH]c1-c1ccccc1)NO` [Example 52, 4-[4-[2-(Hydroxyamino)-2-oxo-ethyl]-5-phenyl-1H-pyrazol-3-yl]benzoic acid]: in assay [1], the Ki stood at 0.017 µM and the IC50 turned out to be 0.018 µM. Moreover, in assay [2], the Ki came to 0.116 µM and the IC50 was 0.13 µM.

`N#Cc1ccc(-c2n[nH]c(-c3ccccc3)c2CC(=O)NO)cc1` [Example 56, 2-[3-(4-Cyanophenyl)-5-phenyl-1H-pyrazol-4-yl]ethanehydroxamic acid]: in assay [1], the Ki came out at 0.014 µM and the IC50 came to 0.014 µM. For the same compound, in assay [2], the Ki amounted to 0.995 µM and the IC50 amounted to 1.02 µM.

With `O=C(Cc1c(C2CCCC2)n[nH]c1-c1ccccc1)NO` [Example 45, 2-(3-Cyclopentyl-5-phenyl-1H-pyrazol-4-yl)ethanehydroxamic acid], in assay [1], the Ki was found to be 0.006 µM and the IC50 worked out at 0.006 µM. Also, in assay [2], the Ki worked out at 0.32 µM and the IC50 was 0.327 µM.

Consider `O=C(Cc1c(-c2cccc(C(=O)O)c2)[nH]nc1[C@H]1CC[C@H](C(=O)O)CC1)NO` [Example 78, trans-3-[3-(4-Carboxycyclohexyl)-4-[2-(hydroxyamino)-2-oxo-ethyl]-1H-pyrazol-5-yl]benzoic acid], for which, in assay [1], the Ki worked out at 0.02 µM and the IC50 amounted to 0.02 µM. For the same compound, in assay [2], the Ki worked out at 0.021 µM and the IC50 amounted to 0.021 µM.

For the compound `O=C(Cc1c(-c2ccc(C(=O)O)cc2)n[nH]c1-c1cccc(C(=O)O)c1)NO` [Example 66, 3-[3-(4-Carboxyphenyl)-4-[2-(hydroxyamino)-2-oxo-ethyl]-1H-pyrazol-5-yl]benzoic acid], the Ki in assay [1] stood at 0.02 µM; in assay [2] it was 0.032 µM. Besides, the figures for the IC50 in assay [1] and in assay [2] were 0.021 µM and 0.032 µM, respectively.

`O=C(Cn1c(-c2ccc(Cl)c(O)c2F)nc2cc(C(=O)O)ccc21)NO` [Example 21, 2-(4-Chloro-2-fluoro-3-hydroxy-phenyl)-1-[2-(hydroxyamino)-2-oxo-ethyl]benzimidazole-5-carboxylic acid]: the Ki in assay [1] came to 0.435 µM; in assay [2], 0.119 µM. Also, the results for the IC50 in assay [1] and in assay [2] were 0.443 µM and 0.125 µM, respectively.

On to `O=C(Cn1c(-c2ccc(Cl)c(O)c2F)nc2c(C(=O)O)cccc21)NO` [Example 20, 2-(4-Chloro-2-fluoro-3-hydroxy-phenyl)-1-[2-(hydroxyamino)-2-oxo-ethyl]benzimidazole-4-carboxylic acid], for which, in assay [1], the Ki came out at 0.903 µM and the IC50 stood at 0.908 µM. In addition, in assay [2], the Ki is 1.16 µM and the IC50 was determined as 1.19 µM.

On to `O=C(Cc1c(C2CCCC(C(=O)O)C2)n[nH]c1-c1ccccc1)NO` (stereo not shown) [Example 74, 3-[4-[2-(Hydroxyamino)-2-oxo-ethyl]-5-phenyl-1H-pyrazol-3-yl]cyclohexanecarboxylic acid], for which, in assay [1], the Ki is 0.001 µM and the IC50 came to 0.001 µM. For the same compound, in assay [2], the Ki was determined as 0.055 µM and the IC50 was determined as 0.055 µM.

Turning to `O=C(Cc1c(-c2ccc(Cl)c(O)c2F)n[nH]c1-c1ccc(Cl)c(O)c1F)NO` [Example 60, 2-[3,5-Bis(4-chloro-2-fluoro-3-hydroxy-phenyl)-1H-pyrazol-4-yl]ethanehydroxamic acid], in assay [1], the Ki is 0.004 µM and the half-maximal inhibitory concentration (IC50) came to 0.004 µM. Moreover, in assay [2], the Ki came to 0.014 µM and the IC50 worked out at 0.014 µM.

With `COc1ccc(-c2n[nH]c(-c3ccccc3)c2CC(=O)NO)cc1` [Example 48, 2-[3-(4-Methoxyphenyl)-5-phenyl-1H-pyrazol-4-yl]ethanehydroxamic acid], in assay [1], the Ki was determined as 0.001 µM and the IC50 amounted to 0.001 µM. In addition, in assay [2], the Ki turned out to be 0.062 µM and the IC50 is 0.064 µM.

For `N#Cc1cccc(-c2n[nH]c(-c3ccccc3)c2CC(=O)NO)c1` [Example 55, 2-[3-(3-Cyanophenyl)-5-phenyl-1H-pyrazol-4-yl]ethanehydroxamic acid], in assay [1], the Ki came out at 0.005 µM and the IC50 came out at 0.005 µM. For the same compound, in assay [2], the Ki came out at 0.335 µM and the IC50 was determined as 0.346 µM.
